Results from the supplement of paper PMC5762512.

What was measured:
Experiment in all cases: IC50 cell viability (Alamar Blue, 96 h)
10326 = tested on: 10326
Protocol: (§1)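 Cells in log-phase growth were seeded in 96-well plates and treated with drug for 96 h at 37°C using 8-point serial dilutions from 0.0025 to 10 µM. Viability was read by Alamar Blue fluorescence after 6 h and normalised to positive and vehicle (DMSO) controls. IC50 values were fitted in ActivityBase; the value given is the mean of two independent experiments.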

11060 = tested on: 11060
Protocol: as §1

14169 = tested on: 14169
Protocol: as §1

8645 = tested on: 8645
Protocol: as §1

A549 = tested on: A549
Protocol: as §1

CAKI-1 = tested on: CAKI-1
Protocol: as §1

HCC2429 = tested on: HCC2429
Protocol: as §1

HS-27 = tested on: HS-27
Protocol: as §1

P896-CL = tested on: P896-CL
Protocol: as §1

PER-403 = tested on: PER-403
Protocol: as §1

PER-535 = tested on: PER-535
Protocol: as §1

PER-536 = tested on: PER-536
Protocol: as §1

PER-624 = tested on: PER-624
Protocol: as §1

PER-704 = tested on: PER-704
Protocol: as §1

PER-712 = tested on: PER-712
Protocol: as §1

PER-891 = tested on: PER-891
Protocol: as §1

RPMI2650 = tested on: RPMI2650
Protocol: as §1

TC797 = tested on: TC797
Protocol: as §1

TY82 = tested on: TY82
Protocol: as §1

WI-38 = tested on: WI-38
Protocol: as §1

Row | Compound | IC50 cell viability 10326 [nM] | IC50 cell viability 11060 [nM] | IC50 cell viability 14169 [nM] | IC50 cell viability 8645 [nM] | IC50 cell viability (A549) [nM] | IC50 cell viability (CAKI-1) [nM] | IC50 cell viability (HCC2429) [nM] | IC50 cell viability (HS-27) [nM] | IC50 cell viability (P896-CL) [nM] | IC50 cell viability (PER-403) [nM] | IC50 cell viability (PER-535) [nM] | IC50 cell viability (PER-536) [nM] | IC50 cell viability (PER-624) [nM] | IC50 cell viability (PER-704) [nM] | IC50 cell viability (PER-712) [nM] | IC50 cell viability (PER-891) [nM] | IC50 cell viability (RPMI2650) [nM] | IC50 cell viability (TC797) [nM] | IC50 cell viability (TY82) [nM] | IC50 cell viability (WI-38) [nM]
1 | CC[C@@]1(O)C(=O)OCc2c1cc1n(c2=O)Cc2cc3c(CN(C)C)c(O)ccc3nc2-1 [Topotecan] | 13.3 | 14.6 | 17.7 | 17.4 | 118 | 622 | 17.5 | 4570 | 272 | 5.01 | 107 | 81.6 | 11.7 | 312 | 243 | 728 | 391 | 24.3 | 116 | 2480
2 | Nc1ccn([C@@H]2O[C@H](CO)[C@@H](O)C2(F)F)c(=O)n1 [Gemcitabine] | 14.7 | 9.77 | 6.73 | 12.4 | 9.64 | 135 | 7.62 | 137 | 29.6 | 4.92 | 5.26 | 5.38 | 6.22 | 36.2 | 49.2 | 568 | 3330 | 16.6 | 77.5 | 341
3 | O=C(CCCCCCC(=O)Nc1ccccc1)NO [Vorinostat] | 514 | 2740 | 1220 | 561 | 2070 | 4100 | 1170 | 4290 | 3190 | 732 | 2440 | > 10000 | 1540 | 2140 | 3450 | > 10000 | 5840 | 7210 | 2240 | 4450
4 | C[C@H]1O[C@@H](O[C@H]2[C@@H](O)C[C@H](O[C@H]3[C@@H](O)C[C@H](O[C@H]4CC[C@@]5(C)[C@H](CC[C@@H]6[C@@H]5C[C@@H](O)[C@]5(C)[C@@H](C7=CC(=O)OC7)CC[C@]65O)C4)O[C@@H]3C)O[C@@H]2C)C[C@H](O)[C@@H]1O [Digoxin] | 41.5 | 86.2 | 52 | 82.5 | 16.5 | 323 | 96.9 | 58.9 | 158 | 57.7 | 218 | 598 | 99.7 | 200 | 299 | 103 | 97.6 | 226 | 83.7 | 34
5 | COc1cc2ncnc(Nc3ccc(F)c(Cl)c3)c2cc1OCCCN1CCOCC1 [Gefitinib] | 5890 | 5370 | 6050 |  | 2740 | > 10000 | > 10000 | 7850 | 1450 | > 10000 | > 10000 | > 10000 | 2210 | > 10000 | > 10000 | 6540 | > 10000 | > 10000 | > 10000 | 5190
